Laboratory results as given in patent US8841312B2, “Fused pyridine, pyrimidine and triazine compounds as cell cycle inhibitors” (Amgen Inc., priority 2007, dated 2014).

Key:
neointima formation = settings: animal models; cited from earlier work
Cdk4/CyclinD1 = Cdk4/CyclinD1 (Homo sapiens (Human), UniProt P11802); assay: Cdk4 kinase inhibition assay with recombinant Cdk4/CyclinD1, Rb substrate, [33P]-ATP filter plate; assay type: biochemical; settings: 25 μM ATP, read-out: Cdk 4 IC50
Method in brief: (§1)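 Recombinant Cdk4/CyclinD1 or Cdk6/CyclinD3 phosphorylated Rb protein with [33P]-ATP for 1 h at room temperature. Protein was TCA-precipitated on filter plates and bound radioactivity counted. IC50 by nonlinear regression.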

Cdk6/CyclinD3 = Cdk6/CyclinD3 (Homo sapiens (Human), UniProt Q00534); assay: Cdk6 kinase inhibition assay with recombinant Cdk6/CyclinD3, Rb substrate, [33P]-ATP filter plate; assay type: biochemical; settings: 25 μM ATP, read-out: Cdk 6 IC50
Sequence of Cdk6/CyclinD3 (Q00534 whole entry): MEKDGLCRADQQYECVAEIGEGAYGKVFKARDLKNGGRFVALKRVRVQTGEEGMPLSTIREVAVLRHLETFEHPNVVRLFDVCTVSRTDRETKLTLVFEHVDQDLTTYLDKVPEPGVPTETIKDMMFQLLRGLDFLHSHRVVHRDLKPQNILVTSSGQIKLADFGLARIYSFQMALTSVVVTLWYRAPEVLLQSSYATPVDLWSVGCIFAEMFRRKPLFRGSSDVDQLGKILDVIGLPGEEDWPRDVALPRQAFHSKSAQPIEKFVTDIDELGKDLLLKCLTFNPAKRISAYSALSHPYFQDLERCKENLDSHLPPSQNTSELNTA
Sequence of Cdk6/CyclinD3 (P30281 whole entry partner): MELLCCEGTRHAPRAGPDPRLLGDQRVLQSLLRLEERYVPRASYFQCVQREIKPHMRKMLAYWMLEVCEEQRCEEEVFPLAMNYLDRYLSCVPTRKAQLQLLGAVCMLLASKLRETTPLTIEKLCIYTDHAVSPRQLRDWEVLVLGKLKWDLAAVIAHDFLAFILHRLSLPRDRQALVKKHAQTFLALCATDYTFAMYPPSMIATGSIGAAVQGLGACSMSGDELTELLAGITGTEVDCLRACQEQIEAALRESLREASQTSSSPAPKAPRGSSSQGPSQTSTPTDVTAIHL
Method in brief: as §1

Sequence of Cdk4/CyclinD1 (P11802 whole entry): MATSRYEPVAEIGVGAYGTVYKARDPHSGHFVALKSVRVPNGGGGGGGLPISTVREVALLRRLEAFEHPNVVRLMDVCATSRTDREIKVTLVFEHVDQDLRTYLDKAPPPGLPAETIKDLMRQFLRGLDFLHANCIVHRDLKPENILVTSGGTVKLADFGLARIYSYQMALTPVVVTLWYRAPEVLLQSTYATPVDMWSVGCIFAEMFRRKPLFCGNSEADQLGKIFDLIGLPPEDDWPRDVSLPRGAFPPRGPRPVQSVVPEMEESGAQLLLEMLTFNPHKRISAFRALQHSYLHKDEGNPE
Sequence of Cdk4/CyclinD1 (P24385 whole entry partner): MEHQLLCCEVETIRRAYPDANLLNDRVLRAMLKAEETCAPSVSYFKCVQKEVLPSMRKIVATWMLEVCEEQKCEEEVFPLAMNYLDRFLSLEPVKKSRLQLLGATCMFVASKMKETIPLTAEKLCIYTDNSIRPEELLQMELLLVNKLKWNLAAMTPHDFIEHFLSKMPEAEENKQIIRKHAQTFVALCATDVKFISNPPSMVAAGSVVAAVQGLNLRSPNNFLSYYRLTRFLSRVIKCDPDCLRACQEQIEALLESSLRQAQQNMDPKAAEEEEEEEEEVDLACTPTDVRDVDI

Row | IC50 (Cdk4/CyclinD1) | IC50 (Cdk6/CyclinD3) | Compound | inhibition of neointima formation (neointima formation)
1 |  |  | COc1ccc(CNc2nc(N(CCO)CCO)nc3c2ncn3C(C)C)cc1 [CVT-313] | significant inhibition of neointima formation
2 | 19 nM | 37 nM | CN(CCO)C1CCN(c2ccc(Nc3ncc4c5ccncc5n(C5CCCC5)c4n3)nc2)CC1 [Example 457] | 
3 | 4.8 nM | 5.1 nM | OCCNC1CCN(c2ccc(Nc3ncc4c5ccncc5n(C5CCCC5)c4n3)nc2)CC1 [Example 458] | 
4 | 340 nM | 350 nM | O[C@H]1CCN(C2CCN(c3ccc(Nc4ncc5c6ccncc6n(C6CCCC6)c5n4)nc3)CC2)C1 [Example 462] | 
5 | 15 nM | 18 nM | OC1CCN(C2CCN(c3ccc(Nc4ncc5c6ccncc6n(C6CCCC6)c5n4)nc3)CC2)CC1 [Example 463] | 
6 | 2 nM | 3.1 nM | CCNC1CCN(c2ccc(Nc3ncc4c5ccncc5n(C5CCCC5)c4n3)nc2)CC1 [Example 464] | 
7 | 4.1 nM | 12 nM | c1cc2c3cnc(Nc4ccc(N5CCC(NC6CC6)CC5)cn4)nc3n(C3CCCC3)c2cn1 [Example 465] | 
8 | 4.7 nM | 14 nM | CCCNC1CCN(c2ccc(Nc3ncc4c5ccncc5n(C5CCCC5)c4n3)nc2)CC1 [Example 466] | 
9 | 4.2 nM | 19 nM | c1cc2c3cnc(Nc4ccc(N5CCC(NC6CCC6)CC5)cn4)nc3n(C3CCCC3)c2cn1 [Example 468] | 
10 | 5.7 nM | 20 nM | CC(C)NC1CCN(c2ccc(Nc3ncc4c5ccncc5n(C5CCCC5)c4n3)nc2)CC1 [Example 469] | 
11 | 11 nM | 38 nM | FC(F)(F)CNC1CCN(c2ccc(Nc3ncc4c5ccncc5n(C5CCCC5)c4n3)nc2)CC1 [Example 470] | 
12 | 4.1 nM | 18 nM | CN(CC(=O)O)C1CCN(c2ccc(Nc3ncc4c5ccncc5n(C5CCCC5)c4n3)nc2)CC1 [Example 471] | 
13 | 24 nM | 34 nM | COC(=O)CNC1CCN(c2ccc(Nc3ncc4c5ccncc5n(C5CCCC5)c4n3)nc2)CC1 [Example 472] | 
14 | 9.7 nM | 28 nM | CCN(CCO)C1CCN(c2ccc(Nc3ncc4c5ccncc5n(C5CCCC5)c4n3)nc2)CC1 [Example 473] | 
15 | 5 nM | 12 nM | OC1CN(C2CCN(c3ccc(Nc4ncc5c6ccncc6n(C6CCCC6)c5n4)nc3)CC2)C1 [Example 474] | 
16 | 2.6 nM | 8 nM | C[C@@H](CO)NC1CCN(c2ccc(Nc3ncc4c5ccncc5n(C5CCCC5)c4n3)nc2)CC1 [Example 475] | 
17 | 1.7 nM | 26 nM | COC(=O)CNC1CCN(c2ccc(Nc3ncc4c5ccncc5n(C5CCCC5)c4n3)nn2)CC1 [Example 476] | 
18 | 2 nM | 5.1 nM | O=C(O)CNC1CCN(c2ccc(Nc3ncc4c5ccncc5n(C5CCCC5)c4n3)nc2)CC1 [Example 477] | 
19 | 2 nM | 5.7 nM | O=C(O)CNC1CCN(c2ccc(Nc3ncc4c5ccncc5n(C5CCCC5)c4n3)nn2)CC1 [Example 478] | 
20 | 8 nM | 17 nM | CN(C)CCN(C)C1CCN(c2ccc(Nc3ncc4c5ccncc5n(C5CCCC5)c4n3)nn2)CC1 [Example 479] | 
21 | 4.9 nM | 10 nM | CN(C)CCNC1CCN(c2ccc(Nc3ncc4c5ccncc5n(C5CCCC5)c4n3)nn2)CC1 [Example 480] | 
22 | 8 nM | 12 nM | OC[C@@H](O)CNC1CCN(c2ccc(Nc3ncc4c5ccncc5n(C5CCCC5)c4n3)nn2)CC1 [Example 481] | 

Row | Compound | IC50 (Cdk4/CyclinD1) | IC50 (Cdk6/CyclinD3) | inhibition of neointima formation (neointima formation)
23 | FCCNC1CCN(c2ccc(Nc3ncc4c5ccncc5n(C5CCCC5)c4n3)nc2)CC1 [Example 467] | 7.2 nM | 21 nM | 
